Results on 24 molecules are retold here after US20160052926A1, “NOVEL PYRIMIDINE AND PYRIDINE COMPOUNDS AND USAGE THEREOF” (HUTCHISON MEDIPHARMA LIMITED, priority 2013, published 2016).

Structures are written as SMILES.

Assay [1] deals with Recombinant human FGFR2 (Homo sapiens, UniProt P21802). In words: Transcreener Kinase Assay of FGFR2. The format is biochemical. The following applies: read-out: FGFR2 (FP) IC50.
For assay [2], the system named is KG-1. In words: Cellular Proliferation Assay (Cell Counting Kit-8), KG-1. The format is cell-based. The following applies: Homo sapiens, KG1 cells, 72 hours. The method in brief: (§1)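 Seeding was 30,000 (KG-1), 5,000 (SNU-16) or 1,000 (RT-112) cells per well, with compound added 24 h later. Dilutions were prepared as an 8-point series of 10 to 0.004 μM in 5% DMSO, before addition to wells.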

Assay [3] has as its target FGFR3 kinase (Homo sapiens, UniProt P22607). In words: Z-Lyte Kinase Assay of FGFR3. Format: biochemical. The method in brief:
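Kinase at 0.7 μg/ml with 4 μM Z-LYTE Tyr 4 peptide and ATP diluted to 300 uM (working solution, 1.33× buffer); compounds 1–0.00046 μM, 2% DMSO final. Kinase reaction and development each 1 h at RT (25-30[…]); coumarin (445 nm) and fluorescein (520 nm) emission read, inhibition from % phosphorylation.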

In assay [4] the test system is SNU-16. The assay can be described thus: Cellular Proliferation Assay (Cell Counting Kit-8), SNU-16. The following applies: Homo sapiens, SNU-16 cells, 72 hours. The format is cell-based. The method in brief:
as §1

Assay [5] relates to RT-112. In words: Cellular Proliferation Assay (Cell Counting Kit-8), RT-112. The format is cell-based. As to conditions: Homo sapiens, RT-112 cells, 72 hours. The procedure:
Cellular Proliferation Assay
• KG-1 (ATCC Accession No. CCL-246), • SNU-16 (ATCC Accession No. CRL-5974), • RT-112 (ECACC Accession No. 85061106)
• FGFR related cancer cell proliferation is measured in 96-well plates using Cell Counting Kit-8 (Dojindo CK04-13). • Seed 30000 cells/well of KG1, 5000 cells/well of SNU16, and 1000 cells/well of RT112 in a volume of 100 μL/well in growth media. • After 24 hours, dilute the compound to 10, 3.3, 1.1, 0.37, 0.12, 0.04, 0.013, 0.004 μM, keeping the DMSO concentration at 5%. • Add 10 μL of 8-point compound series to the wells of culturing cells. • Incubate at 37° C. and 5% CO2 for 72 hours • Add 10 μL/well of CCkit8 and incubate at 37° C. and 5% CO2 for an hour • Detect the optical density of each well at 450 nm on Labsystems Multiskan K3.
• ODcompound well represents the optical density of cells treated with compound. • ODcell well represents the optical density of cells without compounds treatment. (only 0.5% DMSO) • ODcontrol well represents the optical density of culture media background
The concentration of compound providing 50% of proliferation inhibition was calculated using Excel Fit.

Assay [6] concerns the target Recombinant human FGFR1 (Homo sapiens, UniProt P11362). In words: Transcreener Kinase Assay of FGFR1. The format is biochemical. The following applies: read-out: FGFR1 (FP) IC50.

Sequence of Recombinant human FGFR1 (P11362 22-822): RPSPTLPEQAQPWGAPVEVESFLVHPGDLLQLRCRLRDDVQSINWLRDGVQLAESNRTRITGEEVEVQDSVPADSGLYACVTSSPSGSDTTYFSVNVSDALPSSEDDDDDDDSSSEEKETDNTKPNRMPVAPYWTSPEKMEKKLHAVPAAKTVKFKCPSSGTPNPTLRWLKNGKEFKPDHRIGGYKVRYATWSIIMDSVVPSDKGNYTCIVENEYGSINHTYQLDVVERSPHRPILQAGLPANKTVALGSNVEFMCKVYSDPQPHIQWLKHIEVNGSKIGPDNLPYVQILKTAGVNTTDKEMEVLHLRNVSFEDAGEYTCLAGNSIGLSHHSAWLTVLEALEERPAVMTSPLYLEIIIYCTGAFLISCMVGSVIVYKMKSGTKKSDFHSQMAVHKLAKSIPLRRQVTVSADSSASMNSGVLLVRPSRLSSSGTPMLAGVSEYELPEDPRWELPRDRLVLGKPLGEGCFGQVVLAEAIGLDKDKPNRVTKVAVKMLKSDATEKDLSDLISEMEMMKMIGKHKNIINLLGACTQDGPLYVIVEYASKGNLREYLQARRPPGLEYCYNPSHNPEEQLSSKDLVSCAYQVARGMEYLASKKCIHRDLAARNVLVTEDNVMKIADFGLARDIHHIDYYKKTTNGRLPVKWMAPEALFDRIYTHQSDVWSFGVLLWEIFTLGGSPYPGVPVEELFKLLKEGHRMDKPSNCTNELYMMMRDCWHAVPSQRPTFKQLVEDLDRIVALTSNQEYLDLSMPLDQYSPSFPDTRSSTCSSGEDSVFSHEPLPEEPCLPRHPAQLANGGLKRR
Sequence of Recombinant human FGFR2 (P21802 22-821): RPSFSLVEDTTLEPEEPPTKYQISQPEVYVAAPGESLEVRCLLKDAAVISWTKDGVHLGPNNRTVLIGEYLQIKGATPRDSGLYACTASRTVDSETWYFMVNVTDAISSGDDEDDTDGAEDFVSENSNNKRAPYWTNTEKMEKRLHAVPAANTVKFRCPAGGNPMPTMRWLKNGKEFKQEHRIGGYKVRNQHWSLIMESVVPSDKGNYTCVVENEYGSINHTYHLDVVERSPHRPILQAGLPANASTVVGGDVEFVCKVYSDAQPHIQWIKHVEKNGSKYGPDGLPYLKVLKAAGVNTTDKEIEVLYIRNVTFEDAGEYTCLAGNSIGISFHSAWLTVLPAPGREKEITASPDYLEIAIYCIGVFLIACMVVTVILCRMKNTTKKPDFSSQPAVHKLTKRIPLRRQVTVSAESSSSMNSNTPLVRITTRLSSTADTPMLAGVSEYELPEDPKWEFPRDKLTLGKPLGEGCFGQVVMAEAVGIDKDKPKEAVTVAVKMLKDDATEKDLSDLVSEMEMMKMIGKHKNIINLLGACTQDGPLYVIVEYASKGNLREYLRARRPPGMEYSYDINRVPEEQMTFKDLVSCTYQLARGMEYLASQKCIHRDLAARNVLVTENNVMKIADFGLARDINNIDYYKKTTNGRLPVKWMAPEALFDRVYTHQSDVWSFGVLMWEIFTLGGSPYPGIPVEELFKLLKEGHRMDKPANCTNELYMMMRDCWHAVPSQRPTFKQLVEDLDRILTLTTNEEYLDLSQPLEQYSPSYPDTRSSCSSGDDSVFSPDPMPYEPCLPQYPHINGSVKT
Sequence of FGFR3 kinase (P22607 23-806): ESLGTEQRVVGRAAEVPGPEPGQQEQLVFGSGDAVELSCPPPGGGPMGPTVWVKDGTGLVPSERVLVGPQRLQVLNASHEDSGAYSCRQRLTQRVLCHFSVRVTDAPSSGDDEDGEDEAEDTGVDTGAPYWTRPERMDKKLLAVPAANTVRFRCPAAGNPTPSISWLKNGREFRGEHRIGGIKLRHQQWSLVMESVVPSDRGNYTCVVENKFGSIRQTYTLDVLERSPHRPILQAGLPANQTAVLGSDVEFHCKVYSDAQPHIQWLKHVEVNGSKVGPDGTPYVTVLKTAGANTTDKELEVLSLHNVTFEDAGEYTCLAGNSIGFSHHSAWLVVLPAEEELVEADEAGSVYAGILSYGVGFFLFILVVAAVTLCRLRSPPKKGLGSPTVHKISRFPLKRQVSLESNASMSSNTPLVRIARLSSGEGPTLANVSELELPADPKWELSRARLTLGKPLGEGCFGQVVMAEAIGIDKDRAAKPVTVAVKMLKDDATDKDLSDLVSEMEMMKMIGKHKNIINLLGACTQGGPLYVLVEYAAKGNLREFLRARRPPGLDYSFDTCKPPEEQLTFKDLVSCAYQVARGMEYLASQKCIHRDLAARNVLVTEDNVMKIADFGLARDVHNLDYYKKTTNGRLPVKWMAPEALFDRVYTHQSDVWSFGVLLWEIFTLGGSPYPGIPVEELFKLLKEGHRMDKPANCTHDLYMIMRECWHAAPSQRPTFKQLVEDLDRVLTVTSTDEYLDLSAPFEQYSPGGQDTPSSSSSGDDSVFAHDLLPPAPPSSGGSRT

As to `CCN1CCN(c2ccc(Nc3ncc(CCc4cc(C(=O)NC)cc(OC)c4F)cn3)cc2)C[C@H]1C` [Compound 53], the IC50 in assay [1] was found to be 4 nM; in assay [2] it was 14 nM; in assay [3], 8 nM; in assay [4] it was 19 nM; in assay [5] it was 49 nM; in assay [6] it was 5 nM.

In the case of `CNC(=O)c1cc(CCc2cnc(Nc3cnn(C4CCC4)c3)nc2)c(F)c(OC)c1` [Compound 10], the IC50 came out at 5 nM in assay [1]; 18 nM in assay [2]; 8 nM in assay [3]; 22 nM in assay [4]; 29 nM in assay [5]; 25 nM in assay [6].

Turning to `CNC(=O)c1cc(CCc2cnc(Nc3ccc(CN4CCOCC4)cc3)nc2)c(F)c(OC)c1` [Compound 97], the IC50 was determined as 6 nM in assay [1]; 26 nM in assay [2]; 12 nM in assay [3]; 22 nM in assay [4]; 159 nM in assay [5]; 11 nM in assay [6].

On to `CCN1CCN(c2ccc(Nc3ncc(CCc4cc(C(=O)NC)cc(OC)c4C)cn3)cc2)CC1` [Compound 39], for which the IC50 in assay [1] was determined as 41 nM; in assay [2] it was 49 nM; in assay [3], 43 nM; in assay [4] it was 71 nM; in assay [5], 342 nM; in assay [6], 43 nM.

For `CNC(=O)c1cc(CCc2cnc(Nc3cnn([C@H]4CCN(C)C4)c3)nc2)c(F)c(OC)c1` [Compound 168], the IC50 is 11 nM in assay [1]; 32 nM in assay [2]; 15 nM in assay [3]; 16 nM in assay [4]; 414 nM in assay [5]; 16 nM in assay [6].

`CNC(=O)c1cc(CCc2cnc(Nc3cnn(CCOC)c3)nc2)c(F)c(OC)c1` [Compound 120]: the IC50 in assay [1] was determined as 7 nM; in assay [2] it was 32 nM; in assay [3], 17 nM; in assay [4], 31 nM; in assay [5], 165 nM; in assay [6] it was 15 nM.

Turning to `CNC(=O)c1cc(CCc2cnc(Nc3cnn(CCO)c3)nc2)c(Cl)c(OC)c1` [Compound 148], the IC50 in assay [1] is 5 nM; in assay [2], 24 nM; in assay [3], 14 nM; in assay [4], 59 nM; in assay [5] it was 495 nM; in assay [6], 9 nM.

Regarding `CCn1cc(Nc2ncc(CCc3cc(C(=O)NC)cc(OC)c3F)cn2)c(C)n1` [Compound 111], the IC50 in assay [1] stood at 33 nM; in assay [2], 162 nM; in assay [3] it was 61 nM; in assay [4], 127 nM; in assay [5], 570 nM; in assay [6] it was 107 nM.

`CNC(=O)c1cc(CCc2cnc(Nc3cccnc3OC)nc2)c(F)c(OC)c1` [Compound 63]: the IC50 was 27 nM in assay [1]; 427 nM in assay [2]; 243 nM in assay [3]; 419 nM in assay [4]; 895 nM in assay [5]; 195 nM in assay [6].

Turning to `CNC(=O)c1cc(CCc2cnc(Nc3ccc(CN4CCOCC4)cn3)nc2)c(F)c(OC)c1` [Compound 92, 4-fluoro-3-methoxy-N-methyl-5-(2-(2-((5-(morpholinomethyl)pyridin-2-yl)amino)pyrimidin-5-yl)ethyl)benzamide], the IC50 was found to be 40 nM in assay [1]; 255 nM in assay [2]; 198 nM in assay [3]; 238 nM in assay [4]; 831 nM in assay [5]; 164 nM in assay [6].

With `CCn1cc(Nc2ncc(CCc3cc(C(=O)NC)cc(OC)c3Cl)cn2)cn1` [Compound 115], the IC50 in assay [1] amounted to 6 nM; in assay [2] it was 12 nM; in assay [3] it was 11 nM; in assay [4], 19 nM; in assay [5] it was 53 nM; in assay [6] it was 14 nM.

With `CNC(=O)c1cc(CCc2cnc(Nc3cnn(CCO)c3)nc2)c(F)c(OC)c1` [Compound 114], the IC50 in assay [1] stood at 5 nM; in assay [2], 71 nM; in assay [3], 14 nM; in assay [4], 88 nM; in assay [5], 591 nM; in assay [6], 12 nM.

In the case of `CNC(=O)c1cc(CCc2cnc(Nc3cnn(CCS(C)(=O)=O)c3)nc2)c(Cl)c(OC)c1` [Compound 153], the 50% inhibitory concentration (IC50) amounted to 7 nM in assay [1]; 177 nM in assay [2]; 16 nM in assay [3]; 59 nM in assay [4]; 240 nM in assay [5]; 15 nM in assay [6].

Turning to `CNC(=O)c1cc(CCc2cnc(Nc3ccc4nc(C)oc4c3)nc2)c(F)c(OC)c1` [Compound 34], the IC50 in assay [1] came to 13 nM; in assay [2], 132 nM; in assay [3], 46 nM; in assay [4], 58 nM; in assay [5], 308 nM; in assay [6] it was 33 nM.

As for `CNC(=O)c1cc(CCc2cnc(Nc3ccc4ncnn4c3)nc2)c(F)c(OC)c1` [Compound 95], the half-maximal inhibitory concentration (IC50) in assay [1] came to 12 nM; in assay [2], 44 nM; in assay [3], 33 nM; in assay [4], 33 nM; in assay [5], 72 nM; in assay [6] it was 34 nM.

Regarding `CCn1cc(Nc2ncc(CCc3cc(C(=O)NC)cc(OC)c3Br)cn2)cn1` [Compound 83], the 50% inhibitory concentration (IC50) in assay [1] is 9 nM; in assay [2] it was 53 nM; in assay [3] it was 35 nM; in assay [4] it was 55 nM; in assay [5], 201 nM; in assay [6], 15 nM.

With `CNC(=O)c1cc(CCc2cnc(Nc3cnn(C[C@@H](C)O)c3)nc2)c(F)c(OC)c1` [Compound 33], the IC50 is 7 nM in assay [1]; 47 nM in assay [2]; 17 nM in assay [3]; 19 nM in assay [4]; 135 nM in assay [5]; 22 nM in assay [6].

Turning to `CNC(=O)c1cc(CCc2cnc(Nc3ccc(N4CCOCC4)cc3)nc2)c(Cl)c(OC)c1` [Compound 85], the IC50 in assay [1] was determined as 9 nM; in assay [2], 30 nM; in assay [3] it was 17 nM; in assay [4], 93 nM; in assay [5] it was 26 nM; in assay [6], 15 nM.

Turning to `CCN1CCN(c2cc(Nc3ncc(CCc4cc(OC)cc(C(=O)NOC)c4)cn3)ccn2)CC1` [Compound 76], the IC50 is 4 nM in assay [1]; 43 nM in assay [2]; 8 nM in assay [3]; 16 nM in assay [4]; 67 nM in assay [5]; 5 nM in assay [6].

Turning to `CNC(=O)c1cc(CCc2cnc(Nc3ccc4c(C)n(C)nc4c3)nc2)c(Cl)c(OC)c1` [Compound 84], the IC50 was 7 nM in assay [1]; 248 nM in assay [2]; 16 nM in assay [3]; 239 nM in assay [4]; 122 nM in assay [5]; 19 nM in assay [6].

For the molecule `CNC(=O)c1cc(CCc2cnc(Nc3cnn(-c4ccccn4)c3)nc2)c(Cl)c(OC)c1` [Compound 151], the IC50 in assay [1] turned out to be 16 nM; in assay [2], 71 nM; in assay [3] it was 152 nM; in assay [4], 149 nM; in assay [5], 626 nM; in assay [6] it was 15 nM.

For `CNC(=O)c1cc(CCc2cnc(Nc3cnn(CCCOC)c3)nc2)c(F)c(OC)c1` [Compound 126], the IC50 was found to be 8 nM in assay [1]; 45 nM in assay [2]; 17 nM in assay [3]; 18 nM in assay [4]; 112 nM in assay [5]; 15 nM in assay [6].

With `CNC(=O)c1cc(CCc2cnc(Nc3cnn(C4CCCC4)c3)nc2)c(F)c(OC)c1` [Compound 122], the IC50 in assay [1] was 6 nM; in assay [2], 20 nM; in assay [3], 9 nM; in assay [4], 13 nM; in assay [5] it was 67 nM; in assay [6], 14 nM.

For `CNC(=O)c1cc(CCc2cnc(Nc3ccc(N4C[C@@H](C)N[C@@H](C)C4)cc3)nc2)c(F)c(OC)c1` [Compound 21, 3-(2-(2-((4-((3R,5S)-3,5-dimethylpiperazin-1-yl)phenyl)amino)pyrimidin-5-yl)ethyl)-4-fluoro-5-methoxy-N-methylbenzamide], the half-maximal inhibitory concentration (IC50) worked out at 6 nM in assay [1]; 40 nM in assay [2]; 14 nM in assay [3]; 16 nM in assay [4]; 52 nM in assay [5]; 9 nM in assay [6].
